Patent publication US10196436B2, “Inhibitors of the fibroblast growth factor receptor” (BLUEPRINT MEDICINES CORPORATION, priority 2012, dated 2019)
Entries after “also recorded” stand apart in the source; their conditions may differ.

Columns and labels:
[1] = tested on: Hep3B cells; experiment: Induction of apoptosis, Caspase-Glo3/7 assay in Hep3B cells; format: cell-based; conditions: 6 hours
Description: Hep3B cells were seeded at 20 k/well in 96-well white plates in 200 ul of DMEM/5% FBS overnight. The next day compound was added at a final DMSO concentration of 0.1% and incubated for 6 hours. Caspase activity was measured according to manufacture instruction (Caspase-Glo3/7 Assay (Promega)). Briefly, 100 ul of Caspase-Glo3/7 reagent was added to each well and incubated for 1 hour in the dark. Luminescence was measured using EnVision.

[2] = tested on: Hep3B xenograft tumors; experiment: Hep3B liver cancer cell subcutaneous xenograft model, tumor growth inhibition; format: in vivo, Mus Musculus
Description: […] female nude mice (Mus Musculus) age 6 to 8 weeks were used. Tumor cell culture and inoculation: Hep3B cells were cultured with EMEM medium (Invitrogen, USA) supplemented with 10% FBS (Gibco, Australia). The cells were harvested in 90% confluence, and the viability was no less than 90%. Mice were implanted subcutaneously (s.c.) with 200 μL of 10×10^6 Hep3B cells in 50% Matrigel in the right flank at the beginning of the study.
Animal grouping and dosing schedule: Ten days after cell implantation, when tumors reached an average volume of 199 mm^3, 45 mice were selected based on tumor volume and randomly assigned to 5 treatment groups (n=9). The day of randomization was denoted as Do and the treatment was started from then on.
(§1) Tumor volume and body weight measurements: Tumor size was measured twice per week in two dimensions using a caliper, and the volume was expressed in mm^3 using the formula: V=0.5 a×b^2 where a and b were the long and short diameters of the tumor, respectively. Body weight was measured at least twice weekly.

[3] = format: in vivo; conditions: Hep3B-bearing nude mice, entire study period, current dosages and dosing schedule
Description: as §1
Body weight change (%) of Hep3B-bearing nude mice: FIG. 8 is a line graph depicting the body weight change (%) during the entire study period.

[4] = tested on: MDA-MB-453 cells, which harbor an activating FGFR4 mutation; experiment: Cellular potency: phosphorylation of Erk in MDA-MB-453 cells (immunoblot); conditions: Homo sapiens, MDA-MB-453, 1 h, read-out: Potency (pErk IC50)
Description: Dose response in MDA-MB-453 cells, which harbor an activating FGFR4 mutation, was measured as follows. Briefly, MDA-MB-453 cells were seeded at 2.5×10^6 cells/6 well, and starved overnight. Compounds were added at varying concentrations (3000, 1000, 300, 100, and 30 nM) for 1 hour. Samples were collected and lysed for immunoblot analysis. The phosphorylation of Erk was measured and the average pErk value of three replicates was plotted with three parameter dose-response (inhibition) curve fit using Prism GraphPad software, which was used to determine the IC50 values.

[5] = tested on: panel of kinase assays; experiment: Kinase panel selectivity score from percent of DMSO control; conditions: kinases with POC less than 10 at 3 μM divided by total distinct kinases tested
[6] = biological target: wild type FGFR-4 (Homo sapiens (Human), UniProt P22455); experiment: FGFR-4 wild type assay at Km (Caliper electrophoretic mobility shift); format: biochemical; conditions: for IC50: 400 uM ATP, 90 minutes, 25 C, read-out: FGFR4 IC50; for Ratio FGFR1/FGFR4: [IC50 for FGFR1]/[IC50 for FGFR4]
Sequence of wild type FGFR-4 (P22455 22-802): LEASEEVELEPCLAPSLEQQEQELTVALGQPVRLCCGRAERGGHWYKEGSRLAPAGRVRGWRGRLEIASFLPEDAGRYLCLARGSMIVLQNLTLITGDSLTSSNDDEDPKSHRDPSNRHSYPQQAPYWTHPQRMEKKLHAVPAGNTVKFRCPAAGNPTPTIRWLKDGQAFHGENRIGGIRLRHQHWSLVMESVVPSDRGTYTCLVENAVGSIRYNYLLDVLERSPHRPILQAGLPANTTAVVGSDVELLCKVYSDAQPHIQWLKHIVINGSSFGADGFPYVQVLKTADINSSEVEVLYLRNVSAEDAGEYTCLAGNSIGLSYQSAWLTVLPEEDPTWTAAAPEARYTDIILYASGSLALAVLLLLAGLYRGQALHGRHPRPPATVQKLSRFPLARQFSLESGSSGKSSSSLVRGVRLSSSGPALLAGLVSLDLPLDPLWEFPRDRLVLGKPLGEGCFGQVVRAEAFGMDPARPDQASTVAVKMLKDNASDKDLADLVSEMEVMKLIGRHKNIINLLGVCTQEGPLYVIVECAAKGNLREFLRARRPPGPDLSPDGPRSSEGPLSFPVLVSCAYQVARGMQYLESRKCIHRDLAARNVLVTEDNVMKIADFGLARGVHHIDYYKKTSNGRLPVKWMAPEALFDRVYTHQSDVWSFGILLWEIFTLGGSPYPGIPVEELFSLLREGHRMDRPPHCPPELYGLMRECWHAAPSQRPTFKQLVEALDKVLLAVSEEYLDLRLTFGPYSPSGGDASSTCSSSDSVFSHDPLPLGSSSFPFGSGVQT
Description: In order to assess the activity of chemical compounds against the relevant kinase of interest, the Caliper LifeSciences electrophoretic mobility shift technology platform is utilized. Fluorescently labeled substrate peptide is incubated in the presence dosed levels of compounds, a set concentration of kinase and of ATP, so that a reflective proportion of the peptide is phosphorylated. At the end of the reaction, the mix of phosphorylated (product) and non-phosphorylated (substrate) peptides are passed through the microfluidic system of the Caliper LabChip® EZ Reader II, under an applied potential difference. The presence of the phosphate group on the product peptide provides a difference in mass and charge between the product peptide and the substrate peptide, resulting in a separation of the substrate and product pools in the sample. As the pools pass the LEDS within the instrument, these pools are detected and resolved as separate peaks. The ratio between these peaks therefore reflects the activity of the chemical matter at that concentration in that well, under those conditions.
The reaction was stopped by the addition of 70 ul of Stop buffer (100 mM HEPES pH 7.5, 0.015% Brij 35, 35 mM EDTA and 0.2% of Coating Reagent 3 (Caliper Lifesciences)). The plate was then read on a Caliper LabChip® EZ Reader II (protocol settings: −1.9 psi, upstream voltage −700, downstream voltage −3000, post sample sip 35 s).

[7] = biological target: FGFR-4 (Homo sapiens (Human), UniProt P22455); experiment: Crystal structure of compound bound to FGFR-4; format: binding
Sequence of FGFR-4 (P22455 22-802): as above

[8] = biological target: GST-tagged recombinant wild type FGFR-4 (Homo sapiens (Human), UniProt P22455); experiment: Covalency: mass spectrometry of protein-inhibitor complex; format: binding; conditions: 300 uM compound, 75 uM FGFR-4, 3 hours room temperature then 13 hours 4° C.
Sequence of GST-tagged recombinant wild type FGFR-4 (P22455 460-802): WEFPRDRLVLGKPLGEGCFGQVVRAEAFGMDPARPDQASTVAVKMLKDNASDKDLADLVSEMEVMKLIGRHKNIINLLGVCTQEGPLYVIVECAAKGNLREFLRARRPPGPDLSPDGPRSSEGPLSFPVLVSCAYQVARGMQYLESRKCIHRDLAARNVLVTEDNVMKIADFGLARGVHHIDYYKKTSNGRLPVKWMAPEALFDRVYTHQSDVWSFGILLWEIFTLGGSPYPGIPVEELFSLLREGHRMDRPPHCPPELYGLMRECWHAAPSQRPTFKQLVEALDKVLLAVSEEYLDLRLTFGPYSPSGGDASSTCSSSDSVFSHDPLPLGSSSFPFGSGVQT
Description: The protein-inhibitor complex was then desalted using Pierce detergent removal columns (Thermo Pierce). The unmodified protein and protein-inhibitor complex were analyzed by electron spray mass spectrometry to determine their respective molecular weights.

COc1cc(CCc2cc(NC(=O)c3ccc(N4CC(C)NC(C)C4)cc3)n[nH]2)cc(OC)c1 (centres unmarked) [BGJ398, reference compound]
induction of apoptosis (caspase activity) [1]: induction of apoptosis, although at a higher concentration
tumor volume vs vehicle group ([2]; 20 mg/kg PO QD, entire study, nude mice): significant difference in tumor volume between BGJ398 (20 mg/kg PO QD) and vehicle groups was not observed

C=CC(=O)Nc1cccc(C)c1Nc1ncc2cc(-c3c(Cl)c(OC)cc(OC)c3Cl)ccc2n1 [COMPOUND 25, N-(2-((6-(2,6-dichloro-3,5-dimethoxyphenyl)quinazolin-2-yl)amino)-3-methylphenyl)acrylamide]
induction of apoptosis (caspase activity) [1]: potent induction of apoptosis
body weight change / tolerability [3]: well tolerated
tumor volume vs vehicle group ([2]; 100 mg/kg PO BID, Day 4 to Day 19, nude mice): Statistically significant reduction of tumor volumes; also recorded: regressed
tumor volume vs vehicle group ([2]; 300 mg/kg PO BID, Day 4 to Day 19, nude mice): Statistically significant reduction of tumor volumes; also recorded: almost disappeared
IC50 [4]: 1 to 10 nM

C=CC(=O)Nc1cccc(F)c1Nc1ncc2cc(-c3c(Cl)c(OC)cc(OC)c3Cl)ccc2n1 [COMPOUND 27]
selectivity score [S(10) @3 μM] [5]: ≤ 0.030
IC50 [6]: < 10 nM
Ratio FGFR1/FGFR4 [6]: C (the ratio is ≥100 and <200)
IC50 [4]: 1 to 10 nM

C=CC(=O)Nc1cccc(C)c1Nc1ncc2cc(-c3c(Cl)c(OC)cc(OC)c3Cl)cc(OC)c2n1 [COMPOUND 41]
selectivity score [S(10) @3 μM] [5]: ≤ 0.030
IC50 [6]: < 10 nM
Ratio FGFR1/FGFR4 [6]: A (the ratio is >500)
IC50 [4]: 1 to 10 nM

C=CC(=O)N(CCCCN(CC)CC)c1ncc2cc(-c3cc(OC)cc(OC)c3)c(NC(=O)NC(C)(C)C)nc2n1 [COMPOUND 52, N-(7-(3-(tert-butyl)ureido)-6-(3,5-dimethoxyphenyl)pyrido[2,3-d]pyrimidin-2-yl)-N-(4-(diethylamino)butyl)acrylamide]
residue bound in crystal structure [7]: binds to the cysteine at residue 552 of FGFR-4
IC50 [6]: < 10 nM
Ratio FGFR1/FGFR4 [6]: C (the ratio is ≥100 and <200)
mass difference between protein-inhibitor complex and unmodified protein [8]: 575.1252 daltons

C=CC(=O)N(CCCCN(CC)CC)c1ncc2cc(-c3c(Cl)c(OC)cc(OC)c3Cl)c(NC(=O)NC(C)(C)C)nc2n1 [COMPOUND 55, N-(7-(3-(tert-butyl)ureido)-6-(2,6-dichloro-3,5-dimethoxyphenyl)pyrido[2,3-d]pyrimidin-2-yl)-N-(4-(diethylamino)butyl) acrylamide]
selectivity score [S(10) @3 μM] [5]: ≤ 0.030
IC50 [6]: < 10 nM
Ratio FGFR1/FGFR4 [6]: A (the ratio is >500)

CNC(=O)c1cc(Oc2ccc(NC(=O)Nc3ccc(Cl)c(C(F)(F)F)c3)cc2)ccn1 [Sorafenib, reference compound]
tumor volume vs vehicle group ([2]; 30 mg/kg PO QD, Day 4 to Day 19, nude mice): Statistically significant reduction of tumor volumes
